# Laboratory results reported in patent publication US20200239530A1, “COMPOUNDS AND METHODS OF MODULATING PROTEIN DEGRADATION” (Vividion Therapeutics, Inc., priority 2017, published 2020).
# Where two headings read alike, the source gives them in different places.
# Experiments:
# Assay in all cases: Cysteine liganding, probe competition
# Format in all cases: binding
# [1] = target: T1, PCGF2 Polycomb group RING finger protein 2 (Homo sapiens, UniProt P35227)
# T1 construct: Cells were resuspended in cold PBS on ice and sonicated with a probe sonicator to achieve lysis; endogenous in cells
# T1 sequence (P35227 1-344): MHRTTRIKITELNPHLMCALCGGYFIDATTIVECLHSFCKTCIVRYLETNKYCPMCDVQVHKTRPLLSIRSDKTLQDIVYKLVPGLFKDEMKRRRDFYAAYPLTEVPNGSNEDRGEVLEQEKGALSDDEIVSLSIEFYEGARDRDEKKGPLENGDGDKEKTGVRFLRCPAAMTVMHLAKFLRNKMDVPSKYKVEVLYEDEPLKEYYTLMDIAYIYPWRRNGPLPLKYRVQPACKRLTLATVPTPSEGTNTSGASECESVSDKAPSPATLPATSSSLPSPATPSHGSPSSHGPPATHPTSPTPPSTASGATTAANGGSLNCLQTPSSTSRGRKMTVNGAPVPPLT
# Experimental: (§1) Cells were resuspended in cold PBS on ice and sonicated with a probe sonicator to achieve lysis. 200 μL of lysate containing 5 mg/ml proteome was treated with 2 μL of 100× compound stock in a 2-mL deep-well plate. The treated lysate was subsequently incubate at 25° C. for 1 hr with shaking at 600 rpm. The treated lysate was further incubated with 2 μL of 10 mM desthiobiotin iodoacetamide probe at 25° C. for 1 hr with shaking at 600 rpm. Next, the lysate was further treat with 20 μL of solution of PBS containing 11 mM MgSO4 and 2.5% Turbonuclease stock and incubated at 25° C. for 20 minutes with shaking at 600 rpm. 1.7 mL ice-cold acetone was added to each well and incubated at −20° C. for 2 hr, followed by max speed (4200 rpm) spin for 45 min. Acetone was then decanted and the plates were blotted to remove acetone. The plates were then dried in open air for 20 minutes. After drying, the plates were then covered with foil seal and stored at −80° C. overnight.
# (§2) The next day, samples were re-suspended in 90 μL of solution of 9M urea, 50 mM ammonium bicarbonate and 10 mM DTT by incubating at 65C for 20 min with shaking at 1500 rpm. Next, samples were cooled to 37° C. and then 10 μL of 500 mM iodoacetamide solution (92.48 mg/ml) was added. The samples were then incubated at 37° C. for 30 min with shaking at 600 rpm.
# (§3) ZEBA desalting plates were equilibrated 4 times using 250 μL of 2M urea, 50 mM ammonium bicarbonate solution followed by centrifugation at 1500 rpm for 2 minutes. After equilibration was complete, samples were applied to ZEBA desalting plate and spin at 1500 rpm for 2 min on top of 1 mL 96-well deep-well collection plate to buffer exchange samples. 4 μL of solution containing 25 mM CaCl2 and 0.25 mg/mL trypsin was added to the plate and the plate was then incubated at 37° C. for 2 hrs with shaking at 600 rpm. 300 μL of solution containing 5% high-capacity streptavidin agarose slurry in 25 mM Tris-HCl pH 7.5, 150 mM NaCl, and 0.1% NP-40 then added. The plate was incubated at 25° C. for 2 hrs with shaking at 600 rpm. Samples were transferred to 25 μm filter plate and spin at 1000 rpm for 2 min. Samples were then washed 3 times with 0.75 mL of wash buffer (25 mM Tris-HCl pH 7.5, 150 mM NaCl, and 0.1% NP-40) followed by washing 3 times with 0.75 mL PBS, and then 4 times with 0.75 mL water. After the washing step, samples were eluted into polypropylene 96-well plate by addition of 250 µL of 50% MeCN/water, 0.1% formic acid and allowed to gravity drip for 10 min, followed by centrifugation at 1000 rpm for 2 min. Speedvac was used to dry the plates at about 45° C. for […]. Then the plates were covered with foil seal and stored at −20° C.
# (§4) Samples were resuspended by addition of 20 μl of 12.5% ACN, 0.1% formic acid solution, covered with foil seal, and incubated at 42° C. for 10 minutes with shaking at 600 rpm. Then add 30 μL of 0.1% formic acid solution was added and the plate was covered and incubated at 42° C. for 10 minutes with shaking at 600 rpm. Seal plate was then sealed with a 96-well silicon mat for analysis.
# [2] = target: T2, Polycomb group RING finger protein 6 (PCGF6) (Homo sapiens, UniProt Q9BYE7)
# T2 construct: Cells were resuspended in cold PBS on ice and sonicated with a probe sonicator to achieve lysis; endogenous in cells
# T2 sequence (Q9BYE7 1-350): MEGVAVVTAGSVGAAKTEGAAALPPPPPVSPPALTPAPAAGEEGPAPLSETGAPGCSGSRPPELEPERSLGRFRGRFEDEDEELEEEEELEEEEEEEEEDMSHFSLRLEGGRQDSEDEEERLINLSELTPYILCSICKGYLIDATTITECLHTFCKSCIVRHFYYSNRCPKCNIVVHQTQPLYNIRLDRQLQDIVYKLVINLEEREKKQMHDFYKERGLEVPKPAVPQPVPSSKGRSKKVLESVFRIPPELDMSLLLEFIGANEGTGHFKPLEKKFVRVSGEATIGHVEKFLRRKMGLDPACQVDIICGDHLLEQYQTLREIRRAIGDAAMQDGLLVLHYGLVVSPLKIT
# Experimental: as §1, §2, §3, §4
# UniProt O14508 = target: T3, UniProt O14508 (Homo sapiens, UniProt O14508); details: for inhibition at 100 µM: read-out: percent_inhibition
# T3 construct: 200 μL of lysate containing 5 mg/ml proteome was treated with 2 μL of 100× compound stock; endogenous in cells
# T3 sequence (O14508 1-198): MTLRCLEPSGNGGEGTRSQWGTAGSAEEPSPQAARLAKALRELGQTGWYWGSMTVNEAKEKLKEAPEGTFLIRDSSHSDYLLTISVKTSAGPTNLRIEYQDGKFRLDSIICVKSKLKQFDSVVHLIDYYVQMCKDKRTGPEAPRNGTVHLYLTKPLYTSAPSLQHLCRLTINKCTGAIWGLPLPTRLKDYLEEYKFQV
# Description: The following 96-well sample prep protocol was used for sample preparation.
SMILES,"Liganded ([1]; PCGF2 Res# 233, uniprot P35227)","inhibition at 500 µM ([2]; 500 uM, read-out: KB02_500 uM_percent_inhibition)",inhibition at 100 µM (UniProt O14508),"KB05_100 uM_percent_inhibition ([1]; UniProt P35227, 100 uM)","inhibition at 100 µM ([1]; UniProt P35227, 100 uM, read-out: KB05_100 uM_percent_inhibition)",KB05_500 uM_percent_inhibition ([2]; 500 uM),"inhibition at 500 µM ([2]; 500 uM, read-out: KB05_500 uM_percent_inhibition)","KB03_100 uM_percent_inhibition ([1]; UniProt P35227, 100 uM)",100 ave ([1]; uniprot P35227),500 ave ([1]; uniprot P35227),"100 Max ([1]; uniprot P35227, unit assumed)","500 Max ([1]; uniprot P35227, unit assumed)",KB03_100 uM_percent_inhibition ([2]; 100 uM),percent_inhibition (UniProt O14508; 100 uM)
COc1ccc2c(c1)CCCN2C(=O)CCl [KB02],YES,37%,14%,,,,,,,,,,,
C=CC(=O)N(c1ccccc1)c1ccc(Br)cc1 [KB05],,,48%,29%,28%,48%,33%,,,,,,,
O=C(CCl)Nc1cc(C(F)(F)F)cc(C(F)(F)F)c1 [KBO3],,,,,,,,37%,−4.4,35.9,5.9%,49.9%,41%,30%
